Biological target: Tau aggregates in P301L-Tau-FL-GFP HEK293 cells (Homo sapiens (Human), UniProt P10636, P301L)
Assay: Tau degradation assay (APNmAb005 ELISA-based Tau aggregation assay)
Format: cell-based
Conditions: 1 μM compound
Description: (A). Cell-based model of Tau inclusion formation: Six month old rTg4510 mouse brain lysates were used as the source of tau seeds, prepared as described in Example 26 above. P301L-Tau-FL-GFP HEK293 cells represent HEK293 cells express full-length human tau T40 (2N4R) carrying the P301L mutation with a GFP tag (P301L-Tau-FL-GFP). 1×10^6 of P301L-Tau-FL-GFP HEK293 cells were cultured on a 6-well plate in culture medium containing DMEM/F-12 (Gibco) supplemented with 10% fetal bovine serum (FBS) (Gibco), 1% Penicillin-Streptomycin (Gibco) and 0.5 mg/ml geneticin (Thermo Fisher Scientific) for 24 hours to reach 70-90% confluency, indicating the cells were ready for transfection. 50 μg of 6-month-old rTg4510 mouse brain lysate was diluted in 400 μL of serum free medium and mixed with 16 μL of lipofectamine 3000 reagent (Thermo Fisher Scientific) diluted in 400 μl of serum free medium. A solution mixture of rTg4510 brain lysate and lipofectamine 3000 was incubated at room temperature for 25 mins. The culture media were removed, and then a solution mixture of rTg4510 lysate and lipofectamine 3000 was added to the cells for transfection. The solution mixture was incubated at room temperature for five hours, followed by medium change to 10% fetal bovine serum (FBS). […]

Tau aggregates in P301L-Tau-FL-GFP HEK293 cells, sequence (P10636 other isoform, or with tags, fused parts or gaps P301L): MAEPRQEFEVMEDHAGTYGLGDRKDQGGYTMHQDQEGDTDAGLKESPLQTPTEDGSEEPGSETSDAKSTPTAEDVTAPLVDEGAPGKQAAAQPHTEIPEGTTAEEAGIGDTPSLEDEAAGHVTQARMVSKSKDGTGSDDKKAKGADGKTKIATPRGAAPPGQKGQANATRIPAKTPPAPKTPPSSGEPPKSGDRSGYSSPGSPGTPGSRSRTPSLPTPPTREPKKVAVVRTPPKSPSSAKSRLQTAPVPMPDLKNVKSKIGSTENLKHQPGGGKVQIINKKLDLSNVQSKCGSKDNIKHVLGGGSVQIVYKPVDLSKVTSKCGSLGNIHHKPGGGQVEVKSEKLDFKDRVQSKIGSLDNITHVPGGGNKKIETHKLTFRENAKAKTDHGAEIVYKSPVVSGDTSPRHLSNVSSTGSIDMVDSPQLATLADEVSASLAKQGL

CN(C)c1ccc(-c2ccc(-c3cn4cccc(OCCOCCOc5ccc6c(c5)CN(C5CCC(=O)NC5=O)C6=O)c4n3)cc2)cn1 (stereo not shown) [Compound 162842]
Optical Density (O.D.) 450 value decrease compared to vehicle: 20%
